Measurements as given in patent publication US10335400B2, “Treatment of tauopathies with mGluR5 antagonists” (priority 2014, dated 2019).
“Also recorded” adds a separate entry of the source.

Key:
mGluR5-PP2A complex = biological target: T1, mGluR5-PP2A complex (Mus musculus, UniProt Q3UVX5); experiment: Coimmunoprecipitation of PP2Ac with mGluR5 in primary neurons; assay type: cell-based
T1 construct: endogenous in cells; host or cells: mouse primary hippocampal neuronal cultures
Description: Mouse hippocampal cell proteins were prepared with low-stringency lysis buffer [50 mM Hepes (pH 7.4), 10% (vol/vol) glycerol, 1.5 mM MgCl2, 5 mM NaF, 1 mM Na3VO4, 1 mM EDTA, 1 mM EGTA, 1% Nonidet P-40, 5 mM AEBSF, 10 μg/mL aprotinin, leupeptin, pepstatin] and were homogenized by several freeze-thaw cycles followed by water bath sonication. The homogenate was centrifuged at 14,000×g at 4° C. for 15 min. For transfection experiments with vector (DsRed) and with DsRed-PP2A catalytic subunit (PP2Ac), primary neurons were processed in a similar manner. The supernatants then were used for immunoprecipitation with mouse anti-PP2A (1D6; Millipore) followed by incubation with protein G-Sepharose (Thermo Scientific). The Western blots of immunoprecipitates were probed with rabbit anti-mGluR5 (Millipore) and rabbit anti-PP2Ac [R123d] (FIG. 55).

tau = experiment: Tau phosphorylation (Western blots) in metabolically active rat brain slices; assay type: cell-based; conditions: rat brain slices; for BMAA-induced tau hyperphosphorylation at the 12E8 site: 30 min preincubation
Description: (§1) Male Wistar rats (Charles River Laboratories), 2-3 months old, were anesthetized by i.p. injection with 50 mg/kg Nembutal. The animals were decapitated when deeply anesthetized. The brains were removed immediately and cooled in ice-cold (4° C.) oxygenated artificial cerebrospinal fluid (aCSF) consisting of 126 mM NaCl, 3.5 mM KCl, 1.2 mM NaH2PO4, 1.3 mM MgCl2, 2 mM CaCl2, 11 mM D(+) glucose, and 25 mM NaHCO3 (pH 7.4) for 7-8 min. Each brain then was divided sagittally, and 400-μm-thick coronal slices were made with a Camden Vibraslicer (WP, Inc.). The slices were transferred into a chamber containing the oxygenated aCSF and were incubated at 33° C. for 2 h in the presence or absence of 1 mM, β-N ? methylamino-L-alanine (BMAA) dissolved in 10 mM NaHCO3 (Sigma). The oxygenation of the aCSF was carried out by bubbling the solution with a mixture of 95% O2 and 5% CO2 during the entire procedure. At the end of incubation, the brain slices were homogenized with homogenizing buffer [50 mM Tris·HCl (pH 7.4), 8.5% (wt/vol) sucrose, 2 mM EDTA, 2 mM EGTA, 10 mM (3-mercaptoethanol, 5 mM benzamidine, 0.5 mM 4-(2-Aminoethyl) benzenesulfonyl fluoride hydrochloride (AEBSF), 4 μg/mL pepstatin A, and 10 μg/mL each of aprotinin and leupepin] at a ratio of 9.0 mL buffer/1.0 g tissue slices. The homogenates were divided into two parts. One part was centrifuged at 16,000×g for 10 min, and the resulting supernatant was used to assay protein phosphatase 2A (PP2A) activity. Into the other half, an equal volume of phosphatase-inhibitor mixture (20 mM 3-glycerophosphate, 2 mM Na3VO4, and 100 mM NaF) was added immediately, and the samples were used for Western blots.
Protein was fractionated by 10% SDS/PAGE, transferred to PVDF membrane, and then blocked with 5% skim milk for 1 h at room temperature. The membrane was probed with anti-IPP2A (5G6, 1:1, 500) (7), anti-I2P2A (10E7, 1:1, 600) (7), anti-tau ˜92e; 1:5,000) (8), anti-tau (R134d; 1:5 000) (9), anti-tau pSer^262/^356 (12E8; 1:500) (10, anti-tau pSer^199, anti-tau pThr^205, anti-tau pThr^212, and pSer^396 (1:1,000) (Biosource), anti-GAPDH (1:2,000) (Santa Cruz Biotechnology), anti-PP2Ac (1:10 000) (BD Transduction Lab), anti pY^307-PP2A and anti-DML^309-PP2A (1:1,000) (Millipore), anti-GSK-3(α/β), anti-pS^9-GSK-3 β, anti-ERK1/2, anti-pT^202/Y^204-ERK1/2, anti-MEK1/2, anti-p9^17/221-MEK1/2, anti-CAMKII, anti-pT^286-CAMKII, anti-p70 S6 kinase, anti-pT^389-p70 S6 kinase, anti-SAPK/JNK, and anti-pT^183/Y^185-SAPK/JNK (1:1,000) (Cell Signaling Technology). The membrane then was incubated with HRP-conjugated secondary antibody (Jackson ImmunoResearch). The protein bands were detected with the enhanced chemiluminescence reagents (Thermo Scientific). Band intensity was measured by Multi-Gauge V3 software (Fuji Photo Film).

PP2A = PP2A activity (phosphatase ELISA) in rat brain slices; assay type: cell-based; conditions: 30 min pretreatment, BMAA 1 mM 2 h, rat brain slices
Description: as §1

ERK1/2 = ERK1/2 phosphorylation in primary neurons treated with okadaic acid; assay type: cell-based, mouse; conditions: okadaic acid 10-100 nM, 30 min
Description: FIGS. 11A and 11B are images showing the inhibition of PP2A induces ERK1/2 phosphorylation. Primary neurons were treated with the PP2A inhibitor okadaic acid (OA, 10-100 nM) for 30 min and were processed for ERK1/2 analysis. (A) Representative Western blots showing phosphorylation of ERK1/2. (B) Quantitative analysis of pERK1/2 after normalization with total ERK1/2. Data are expressed as mean±SEM. *P<0.05; **P<0.01.
Protein was fractionated by 10% SDS/PAGE, transferred to PVDF membrane, and then blocked with 5% skim milk for 1 h at room temperature. […] The protein bands were detected with the enhanced chemiluminescence reagents (Thermo Scientific). Band intensity was measured by Multi-Gauge V3 software (Fuji Photo Film).

T1 sequence (Q3UVX5 19-1203, one chain of several): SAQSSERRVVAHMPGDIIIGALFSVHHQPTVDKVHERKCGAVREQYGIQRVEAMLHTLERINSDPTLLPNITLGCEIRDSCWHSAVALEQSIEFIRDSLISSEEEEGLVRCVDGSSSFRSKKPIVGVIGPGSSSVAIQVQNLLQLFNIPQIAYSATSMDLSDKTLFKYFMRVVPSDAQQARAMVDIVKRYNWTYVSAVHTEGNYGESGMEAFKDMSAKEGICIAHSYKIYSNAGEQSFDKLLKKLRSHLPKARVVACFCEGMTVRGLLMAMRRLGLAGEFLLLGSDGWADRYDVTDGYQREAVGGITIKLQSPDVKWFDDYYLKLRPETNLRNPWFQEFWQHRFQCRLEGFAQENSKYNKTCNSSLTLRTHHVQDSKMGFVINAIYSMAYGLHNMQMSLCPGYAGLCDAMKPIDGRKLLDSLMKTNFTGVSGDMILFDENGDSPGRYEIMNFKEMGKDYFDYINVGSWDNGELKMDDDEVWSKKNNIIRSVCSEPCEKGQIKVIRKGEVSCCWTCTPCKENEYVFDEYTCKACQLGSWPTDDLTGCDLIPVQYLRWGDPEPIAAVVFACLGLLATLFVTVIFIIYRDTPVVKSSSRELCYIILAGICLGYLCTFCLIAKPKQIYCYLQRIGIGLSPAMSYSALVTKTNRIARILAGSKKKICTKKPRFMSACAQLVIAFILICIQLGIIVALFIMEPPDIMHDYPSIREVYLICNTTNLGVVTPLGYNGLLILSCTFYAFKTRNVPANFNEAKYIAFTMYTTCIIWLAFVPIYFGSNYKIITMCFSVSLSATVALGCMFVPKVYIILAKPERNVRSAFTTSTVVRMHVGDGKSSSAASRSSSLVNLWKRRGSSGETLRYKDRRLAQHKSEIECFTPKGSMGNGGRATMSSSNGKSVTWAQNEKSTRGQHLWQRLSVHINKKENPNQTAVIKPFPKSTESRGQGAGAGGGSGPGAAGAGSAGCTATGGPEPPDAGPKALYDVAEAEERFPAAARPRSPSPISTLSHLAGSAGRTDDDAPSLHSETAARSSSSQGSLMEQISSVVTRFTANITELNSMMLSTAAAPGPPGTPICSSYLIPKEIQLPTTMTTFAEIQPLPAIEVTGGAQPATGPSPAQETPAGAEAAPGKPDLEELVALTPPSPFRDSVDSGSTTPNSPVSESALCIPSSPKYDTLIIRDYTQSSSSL

**Q.** Which “BMAA-induced dissociation of PP2A from mGluR5” value (mGluR5-PP2A complex) does the source give for `Cc1cccc(C#Cc2ccccc2)n1` [MPEP, 2-methyl-6-(phenylethynyl)pyridine] here?
**A.** completely blocked

**Q.** What about the “BMAA-induced tau hyperphosphorylation at the 12E8 site” value (tau; 50 μM MPEP, BMAA 1 mM 2 h) of the same molecule?
**A.** significantly blocked

**Q.** And the “BMAA induced decrease in PP2A activity blocked by pretreatment” value (PP2A; MPEP 50 μM)?
**A.** blocked completely

**Q.** For `CC(C)(C)n1nc(-c2ccc(Cl)cc2)c2c(N)ncnc21` [PP2], which BMAA-induced tau hyperphosphorylation (tau; PP2 10 μM, 30 min before BMAA) is on record?
**A.** blocked; also recorded: significantly attenuated

**Q.** How did the ERK1/2 phosphorylation (ERK1/2) turn out when `C=C1[C@@H](O)[C@@H]2O[C@]3(CC[C@H](/C=C/[C@@H](C)[C@@H]4CC(C)=C[C@@]5(O[C@H](C[C@@](C)(O)C(=O)O)CC[C@H]5O)O4)O3)CC[C@H]2O[C@@H]1[C@@H](O)C[C@H](C)[C@H]1O[C@@]2(CCCCO2)CC[C@H]1C` [okadaic acid] was run?
**A.** up-regulates

**Q.** With `CCCCCCCCCCCCC/C=C/[C@@H](O)[C@@H](N)CO` [DES, D-Erythro-S] as the molecule, how does the BMAA-induced tau hyperphosphorylation (tau; DES 15 nM pretreatment, BMAA 1 mM 2 h) read?
**A.** blocked; also recorded: entirely prevented

**Q.** Which results are given for `N#Cc1cc2c(cc1[N+](=O)[O-])=NC(=O)C(=O)N=2` [CNQX, 6-cyano-7-nitroquinoxaline-2,3-dione]?
**A.** BMAA-induced tau hyperphosphorylation at the 12E8 site (tau; CNQX 20 μM alone, BMAA 1 mM 2 h): no significant change; BMAA induced decrease in PP2A activity blocked by pretreatment (PP2A; CNQX 20 μM): not
